This experiment concerns the target T1, Cbl-b ubiquitin ligase (N1/2 construct) (Homo sapiens, UniProt Q13191).
T1 construct: 75-nM Cbl-b (N1/2 construct) [27]
In words: Cbl-b biochemical assay (in vitro autoubiquitination ELISA, inhibition of ubiquitin ligase activity). The following applies: in vitro enzymatic activity of Cbl-b ubiquitin ligase; 75-nM Cbl-b, 100 µM ATP, 60 min reaction; read-out: Cbl-b inhibitory activity IC50. As to the method: Compounds 1–10 were tested for their ability to inhibit the in vitro enzymatic activity of the Cbl-b ubiquitin ligase (Table 3). […] There was no clear pattern of N-methylation or bromine substitution of the two pyrrole rings that directly correlated with the observed Cbl-b inhibitory activity.
An extract of Astrosclera willeyana was identified as an active source in a screening campaign of prefractionated natural product samples for the inhibition of Cbl-b ubiquitin ligase activity. The bulk extract was fractionated as described above, and the resulting fractions were evaluated for activity in the Cbl-b bioassay, the details of which have already been reported. In brief, dose response experiments with chromatography fractions and purified compounds were carried out in a Tris-HCl-based enzymatic assay buffer with the following final composition: 75-nM Cbl-b (N1/2 construct), 50-nM Ube2d2 protein (E2), 10-nM UBE1protein (E1), 50-nM biotinylated ubiquitin, and 0.5-µM unlabeled recombinant ubiquitin. The assay buffer also contained the following additives: 0.1-mM dithiothreitol, 0.5-mg/mL bovine gelatin (type B), 0.5-mM magnesium chloride, and 0.01% Triton X-100. Reactions were initiated by the addition of ATP to a final concentration of 100 µM. Following initiation, reactions were transferred to plates previously precoated overnight with 10 µg/mL of the polyubiquitin-binding domain of Cbl-b (UBA). The UBA domain of Cbl-b binds ubiquitin chains, which results in the capture and enrichment of autopolyubiquitinated Cbl-b. Following a reaction interval of 60 min, the reactions were quenched by the addition of zinc to a final concentration of 2.4 mM. Quenched reactions were incubated at room temperature overnight. Following this incubation period reaction, plates were processed as standard ELISA plates: washed thrice in Tris-buffered saline (with 0.1% Tween-20, 1X TBST), probed with avidin-conjugated horse radish peroxidase, which binds captured biotinylated ubiquitin, washed again in 1X TBST (3X), and then, an avidin-HRP-dependent fluorescent signal (indicating avidin-HRP/biotin-polyubiquitin complexes captured by the UBA coating on the plate) was detected (excitation 325 nm, emission 420 nm) using an Infinite M1000 (Tecan US, Inc., Raleigh, NC, USA) plate reader.
(In an ELISA, binding on a coated surface is turned into a signal by an enzyme label.)
T1 sequence (Q13191 1-483 limits assumed): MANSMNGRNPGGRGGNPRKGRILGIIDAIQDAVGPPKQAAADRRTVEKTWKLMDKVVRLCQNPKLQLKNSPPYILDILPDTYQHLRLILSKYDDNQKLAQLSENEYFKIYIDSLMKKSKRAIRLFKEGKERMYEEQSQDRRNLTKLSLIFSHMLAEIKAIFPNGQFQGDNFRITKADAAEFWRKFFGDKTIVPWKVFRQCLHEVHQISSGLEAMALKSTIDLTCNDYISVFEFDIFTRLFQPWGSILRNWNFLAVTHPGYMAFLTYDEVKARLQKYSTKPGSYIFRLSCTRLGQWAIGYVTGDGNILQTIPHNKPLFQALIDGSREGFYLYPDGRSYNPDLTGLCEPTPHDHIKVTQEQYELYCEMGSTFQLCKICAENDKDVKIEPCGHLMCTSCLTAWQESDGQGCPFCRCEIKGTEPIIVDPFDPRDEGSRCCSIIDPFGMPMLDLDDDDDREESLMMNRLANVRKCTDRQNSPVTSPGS
By IC50 is commonly meant the concentration that inhibits the measured activity by half. For the compound `CC(=CCn1cnc2c1c(N)nc[n+]2C)CCC1(C)C2=CCCC(C)(C)C2CCC1C` (stereo not shown) [Compound 1, Agelasine W], the IC50 was 57000 nM. In the case of `Cn1cc(Br)cc1C(=O)NC[C@H]1Cc2nc(N)[nH]c2[C@@H](c2c[nH]c(N)n2)[C@@H]1CNC(=O)c1cc(Br)c[nH]1` [Compound 6, N(1′)-methylageliferin] it was 30000 nM; in that of `Cn1cc(Br)cc1C(=O)NCC1C(CNC(=O)c2ccc(Br)[nH]2)Cc2[nH]c(N)nc2C1c1c[nH]c(N)n1` (stereo not shown) [Compound 4, N(1)-methylisoageliferin], 33000 nM. With `Cn1c(Br)ccc1C(=O)NC[C@H]1Cc2nc(N)[nH]c2[C@@H](c2c[nH]c(N)n2)[C@@H]1CNC(=O)c1cc(Br)c[nH]1` [Compound 5, N(1′)-methylisoageliferin], the concentration for half-maximal inhibition (IC50) was 25000 nM. Take `CNc1nc[n+](C)c2ncn(C/C=C(\C)CC[C@]3(C)C4=CCCC(C)(C)[C@H]4CC[C@H]3C)c12` [Compound 2, Agelasine X]: the IC50 was 72000 nM. The value for `CNc1nc[n+](C)c2ncn(C/C=C(\C)CC[C@@]3(C)[C@H](C)CC[C@]4(C)C(C)=CCC[C@H]34)c12` [Compound 3, Agelasine Y] was 66000 nM; that for `Cn1cc(Br)cc1C(=O)NC[C@H]1Cc2nc(N)[nH]c2[C@@H](c2c[nH]c(N)n2)[C@@H]1CNC(=O)c1cc(Br)cn1C` [Compound 8, N(1),N(1′)-dimethylageliferin] was 19000 nM.

`Cn1cc(Br)cc1C(=O)NC[C@H]1Cc2nc(N)[nH]c2[C@@H](c2c[nH]c(N)n2)[C@@H]1CNC(=O)c1cc(Br)c(Br)[nH]1` [Compound 9, N(1′)-methyl-2-bromoageliferin]: the half-inhibitory concentration (IC50) was determined as 19000 nM. In the case of `Cn1c(C(=O)NC[C@H]2Cc3nc(N)[nH]c3[C@@H](c3c[nH]c(N)n3)[C@@H]2CNC(=O)c2cc(Br)c[nH]2)cc(Br)c1Br` [Compound 10, N(1′)-methyl-2′-bromoageliferin] it was 35000 nM. The value for `Cn1cc(Br)cc1C(=O)NC[C@@H]1[C@@H](CNC(=O)c2ccc(Br)n2C)Cc2nc(N)[nH]c2[C@H]1c1c[nH]c(N)n1` [Compound 7, N(1),N(1′)-dimethylisoageliferin] was 18000 nM.

The values above are taken from paper PMC8307156, “Agelasine Diterpenoids and Cbl-b Inhibitory Ageliferins from the Coralline Demosponge Astrosclera willeyana” (Marine Drugs, 2021).
